Laboratory results published in patent publication US10092575B2, “Substituted thiophene- and furan-fused azolopyrimidine-5-(6H)-one compounds” (DART NEUROSCIENCE (CAYMAN) LTD., priority 2012, dated 2018).

What follows are compounds tested against human PDE1b enzyme (Homo sapiens (Human), UniProt Q01064) (assay: PDE1b inhibitory assay (IMAP TR-FRET)). Details: not given.
With O=c1n(Cc2ccccc2Cl)c2sccc2c2ncnn12 [Example 1, 6-(2-Chlorobenzyl)thieno[3,2-e][1,2,4]triazolo[1,5-c]pyrimidin-5(6H)-one] the EC50 was 1 to 10 µM.
O=c1n(Cc2cccc(Cl)c2)c2sccc2c2ncnn12 [Example 2, 6-(3-Chlorobenzyl)thieno[3,2-e][1,2,4]triazolo[1,5-c]pyrimidin-5(6H)-one] was tested, and the EC50 was 1 to 10 µM.
For Cc1csc2c1c1ncnn1c(=O)n2Cc1ccc(Cl)cc1 [Example 3, 6-(4-Chlorobenzyl)-9-methylthieno[3,2-e][1,2,4]triazolo[1,5-c]pyrimidin-5(6H)-one], the EC50 was 0.1 to 1 µM.
O=c1n(Cc2ccc(Cl)cc2)c2sccc2c2ncnn12 [Example 5, 6-(4-Chlorobenzyl)thieno[3,2-e][1,2,4]triazolo[1,5-c]pyrimidin-5(6H)-one] showed an EC50 of 0.1 to 1 µM.
Compound Cc1csc2c1c1ncnn1c(=O)n2Cc1ccccc1 [Example 6, 6-Benzyl-9-methylthieno[3,2-e][1,2,4]triazolo[1,5-c]pyrimidin-5(6H)-one] has an EC50 of 0.1 to 1 µM.
O=c1n(Cc2ccccc2Cl)c2sc(Cc3ccccc3)cc2c2ncnn12 [Example 8, 8-benzyl-6-(2-Chlorobenzyl)thieno[3,2-e][1,2,4]triazolo[1,5-c]pyrimidin-5(6H)-one] gave an EC50 of 0.1 to 1 µM.
For O=c1n(Cc2cccc(Cl)c2)c2sc(Cc3ccccc3)cc2c2ncnn12 [Example 9, 8-Benzyl-6-(3-chlorobenzyl)thieno[3,2-e][1,2,4]triazolo[1,5-c]pyrimidin-5(6H)-one], the EC50 was 0.1 to 1 µM.
Work on Cc1csc2c1c1ncnn1c(=O)n2Cc1ccccc1Cl [Example 10, 6-(2-Chlorobenzyl)-9-methylthieno[3,2-e][1,2,4]triazolo[1,5-c]pyrimidin-5(6H)-one] yielded an EC50 of 1 to 10 µM.
For Cc1csc2c1c1ncnn1c(=O)n2Cc1cccc(Cl)c1 [Example 11, 6-(3-Chlorobenzyl)-9-methylthieno[3,2-e][1,2,4]triazolo[1,5-c]pyrimidin-5(6H)-one], the EC50 was 0.1 to 1 µM.
Cc1cc2c(s1)n(Cc1ccccc1)c(=O)n1ncnc21 [Example 12, 6-Benzyl-8-methylthieno[3,2-e][1,2,4]triazolo[1,5-c]pyrimidin-5(6H)-one] showed an EC50 of 1 to 10 µM.
Cc1cc2c(s1)n(Cc1ccccc1Cl)c(=O)n1ncnc21 [Example 13, 6-(2-Chlorobenzyl)-8-methylthieno[3,2-e][1,2,4]triazolo[1,5-c]pyrimidin-5(6H)-one] showed an EC50 of 1 to 10 µM.
Cc1cc2c(s1)n(Cc1ccc(Cl)cc1)c(=O)n1ncnc21 [Example 15, 6-(4-Chlorobenzyl)-8-methylthieno[3,2-e][1,2,4]triazolo[1,5-c]pyrimidin-5(6H)-one] was tested, and the EC50 was 0.1 to 1 µM.
Cc1cc2c(s1)n(Cc1cccc(Cl)c1)c(=O)n1ncnc21 [Example 16, 6-(3-Chlorobenzyl)-8-methylthieno[3,2-e][1,2,4]triazolo[1,5-c]pyrimidin-5(6H)-one] showed an EC50 of 1 to 10 µM.
Work on O=c1n(Cc2ccccc2)c2sc(Cc3ccccc3)cc2c2ncnn12 [Example 17, 6,8-Dibenzylthieno[3,2-e][1,2,4]triazolo[1,5-c]pyrimidin-5(6H)-one] yielded an EC50 of 0.1 to 1 µM.
Compound O=c1n(Cc2ccc(-c3ccccc3)cc2)c2sc(Cc3ccccc3)cc2c2ncnn12 [Example 18, 6-([1,1′-Biphenyl]-4-ylmethyl)-8-benzylthieno[3,2-e][1,2,4]triazolo[1,5-c]pyrimidin-5(6H)-one] has an EC50 of 1 to 10 µM.
Work on CC(C)CCc1cc2c(s1)n(Cc1ccccc1Cl)c(=O)n1ncnc21 [Example 19, 6-(2-Chlorobenzyl)-8-isopentylthieno[3,2-e][1,2,4]triazolo[1,5-c]pyrimidin-5(6H)-one] yielded an EC50 of 1 to 10 µM.
Compound CC(C)CCc1cc2c(s1)n(Cc1cccc(Cl)c1)c(=O)n1ncnc21 [Example 20, 6-(3-Chlorobenzyl)-8-isopentylthieno[3,2-e][1,2,4]triazolo[1,5-c]pyrimidin-5(6H)-one] has an EC50 of 1 to 10 µM.
O=c1n(Cc2ccc(Cl)cc2)c2sc(Cc3ccccc3)cc2c2ncnn12 [Example 22, 8-Benzyl-6-(4-chlorobenzyl)thieno[3,2-e][1,2,4]triazolo[1,5-c]pyrimidin-5(6H)-one] showed an EC50 of 0.1 to 1 µM.
Compound CC(C)CCc1cc2c(s1)n(Cc1ccc(Cl)cc1)c(=O)n1ncnc21 [Example 23, 6-(4-Chlorobenzyl)-8-isopentylthieno[3,2-e][1,2,4]triazolo[1,5-c]pyrimidin-5(6H)-one] has an EC50 of 0.1 to 1 µM.
Work on O=c1n(Cc2ccccc2)c2sccc2c2ncnn12 [Example 24, 6-Benzylthieno[3,2-e][1,2,4]triazolo[1,5-c]pyrimidin-5(6H)-one] yielded an EC50 of 1 to 10 µM.
For CC(C)CCc1cc2c(s1)n(Cc1ccccc1)c(=O)n1ncnc21 [Example 25, 6-Benzyl-8-isopentylthieno[3,2-e][1,2,4]triazolo[1,5-c]pyrimidin-5(6H)-one], the EC50 was 0.1 to 1 µM.
With Cc1sc2c(c1C)c1ncnn1c(=O)n2Cc1ccc(Cl)cc1 [Example 26, 6-(4-Chlorobenzyl)-8,9-dimethylthieno[3,2-e][1,2,4]triazolo[1,5-c]pyrimidin-5(6H)-one] the EC50 was 0.1 to 1 µM.
With COc1ccc(Cn2c(=O)n3ncnc3c3ccsc32)cc1 [Example 27, 6-(4-Methoxybenzyl)thieno[3,2-e][1,2,4]triazolo[1,5-c]pyrimidin-5(6H)-one] the EC50 was 0.1 to 1 µM.
COc1ccc(Cn2c(=O)n3ncnc3c3c(C)csc32)cc1 [Example 28, 6-(4-Methoxybenzyl)-9-methylthieno[3,2-e][1,2,4]triazolo[1,5-c]pyrimidin-5(6H)-one] gave an EC50 of 0.1 to 1 µM.
Work on COc1ccc(Cn2c(=O)n3ncnc3c3cc(CN(C)C)sc32)cc1 [Example 30, 8-((Dimethylamino)methyl)-6-(4-methoxybenzyl)thieno[3,2-e][1,2,4]triazolo[1,5-c]pyrimidin-5(6H)-one] yielded an EC50 of 0.1 to 1 µM.

Same assay, conditions: negative log of half-maximal molar inhibitory concentration; 200 nM FAM-cAMP; reported as ranges
In the case of O=c1n(Cc2ccc(-c3ccccc3)cc2)c2sccc2c2ncnn12 [Example 4, 6-([1,1′-Biphenyl]-4-ylmethyl)thieno[3,2-e][1,2,4]triazolo[1,5-c]pyrimidin-5(6H)-one], the “PDE1b (pEC50)” value is reported as under 5.
In the case of Cc1csc2c1c1ncnn1c(=O)n2Cc1ccc(-c2ccccc2)cc1 [Example 7, 6-([1,1′-Biphenyl]-4-ylmethyl)-9-methylthieno[3,2-e][1,2,4]triazolo[1,5-c]pyrimidin-5(6H)-one], the “PDE1b (pEC50)” value is reported as under 5.
Cc1cc2c(s1)n(Cc1ccc(-c3ccccc3)cc1)c(=O)n1ncnc21 [Example 14, 6-([1,1′-Biphenyl]-4-ylmethyl)-8-methylthieno[3,2-e][1,2,4]triazolo[1,5-c]pyrimidin-5(6H)-one] was tested, and the “PDE1b (pEC50)” value was under 5.
With CC(C)CCc1cc2c(s1)n(Cc1ccc(-c3ccccc3)cc1)c(=O)n1ncnc21 [Example 21, 6-([1,1′-Biphenyl]-4-ylmethyl)-8-isopentylthieno[3,2-e][1,2,4]triazolo[1,5-c]pyrimidin-5(6H)-one] the “PDE1b (pEC50)” value was under 5.
For COc1ccc(Cn2c(=O)n3ncnc3c3cc(CN4CCCOCC4)sc32)cc1 [Example 29, 8-((1,4-Oxazepan-4-yl)methyl)-6-(4-methoxybenzyl)thieno[3,2-e][1,2,4]triazolo[1,5-c]pyrimidin-5(6H)-one], the “PDE1b (pEC50)” value was over 7.
In the case of COc1ccc(Cn2c(=O)n3ncnc3c3cc(CN4CCOCC4)sc32)cc1 [Example 31, 6-(4-Methoxybenzyl)-8-(morpholinomethyl)thieno[3,2-e][1,2,4]triazolo[1,5-c]pyrimidin-5(6H)-one], the “PDE1b (pEC50)” value is reported as over 7.
